Experimental data: US20220010310A1, “An lncRNA integrates a DNA-PK-mediated DNA damage response and vascular senescence” (The Brigham and Women`s Hospital, Inc., priority 2018, published 2022)

B1: Deletion of domain-4: biotinylated SNHG12 construct with predicted secondary-structure domain 4 deleted (nucleic acid, listed as Homo sapiens)
chain: TGCAAGCCTCTGCCTGCCTTCCTGCGCGCCGTTCCCCGCTAGTCGCTGCTGCTGGCGCGCACTCGCCGGGTTTTTCCTCCCACGGCCTCGAGATGGTGGTGAATGTGGCACGGAGGAGCCGGGCCTTCCAACCCGGTGGGCCCGAGCTCCGAAAGGCCCCCTCGGCAGTGAGAGGGGCGGGAGCCCGCGGGGGCCGCGCCCTTCTCTCGCTTCGGACTGCGCAACGCTGCGCTCTGGGCTGACAGGCGGATAAAACGGTCCCATCAAGACTGAGAAAAAGCACACCAGCTATTGGCACAGCGTGGGCAGTGGGGCCTACAGGATGACTGACTTAGTCTACAGAGATCCCGGCGTACTTAAGCAGATGAAGACTCTTAAGATGACAGAAGGTGATTTTTCTGGTGATCGAGGACTTCCGGGGTAATGACAGTGATGAAATGCAGGGGACCTGGTTGCCCCCAAGTTTCCTGGCAGTGTGTGATACTGAGGAGGTGAGCTTGTTTCTGGAGCTGTGCTTTAAGGTAAAGTTGATCAGCTTAATCCTCCTGATCCCTTTCCCA
modifications: biotin
notes: biotinylated SNHG12 construct with predicted secondary-structure domain 4 deleted

Experiments:
[1] = tested on: LDLR−/− mice; test: NR rescue of SNHG12-gapmeR accelerated atherosclerosis in LDLR−/− mice; format: in vivo, mouse
Description: FIGS. 5A-G. NR rescued progression of atherosclerotic lesions in LDLR^−/− mice induced by SNHG12 silencing. (A) LDLR^−/− mice were i.v. injected with vehicle control or SNHG12-gapmeR (7.5 mg/kg/mouse) twice per week and placed on an HCD containing NR (400 mg/kg/day) for 12 weeks (n=12 per group). (B) Lesion areas were quantified using ORO area on aortic sinus sections (n=10 per group). Fold change was calculated compared to groups from study 1 as described in FIG. 1. P value was determined by Student's t test. (C) Lesional DNA damage in the vascular endothelium of the aortic arch was quantified in LDLR^−/− mice by γH2AX with nuclear co-localization with DAPI in CD31^+ cells compared to study 1. RT-qPCR analysis for (D) SNHG12 and (E) markers of senescence p16, p21, and p27 from RNA isolated of the aortic intima of mice placed on HCD containing NR (n=6 per group). P value was determined by Student's t test. (F) Acellular areas were measured in the aortic sinus for each of the indicated groups (n=6 per group; 2-3 lesion per mice). (G) TUNEL staining was quantified in the aortic sinus for each of the indicated groups (n=7 per group). P value was determined by Student's t test. For all panels, values are mean±SD; *p<0.05, **p<0.01; ***p<0.001; ****p<0.0001.
Furthermore, administration of the NAD^+ precursor NR can limit DNA damage. […] To assess whether SNHG12-deficient lesion progression involves increased DNA damage, SNHG12-gapmeR was delivered i.v. as described in (FIG. 1F) and the HCD was supplemented with NR (400 mg/kg/day) (FIG. 5A). […] Moreover, NR administration abrogated the SNHG12-gapmeR mediated effect on increased γH2AX foci in lesional ECs in the aortic arch (FIG. 5C). Consistent with less DNA damage, the induction of the senescence markers p16, p21, and p27 fell in the presence of NR compared to LDLR^−/− mice treated with SNHG12-gapmeRs without NR (FIGS. 5D, 5E). […] Taken together, the rescue effects mediated by NR strongly support the findings that the lncRNA SNHG12 regulates the DDR both in vitro and in vivo.

[2] = tested on: HUVECs; test: Mitochondrial stress (Seahorse OCR/ECAR, NAD+/NADH) in gapmeR-transfected HUVECs; format: cell-based, human
Description: FIGS. 13A-D. Accumulating DNA damage and its effect on mitochondrial stress. (A) Oxidative consumption rate (OCR) and extracellular acidification rate (ECAR). The bars from left to right represent control, control+NR, SNHG12 KD, and SNHG12 KD+NR, respectively. (B) in HUVECs transfected with the indicated gapmeRs in the absence or presence of NR (500 μM, 24 hrs) (n=3). P value was determined by one-way analysis of variance (ANOVA) (Fisher's test). The bars from left to right represent control, control+NR, SNHG12 KD, and SNHG12 KD+NR, respectively. (C) SNHG12 expression or (D) ratio of NAD+ to […] in gapmeR-transfected HUVECs in the absence or presence of NR (n=3). P value was determined by Student's t test. For all panels, values are mean±SD; *p<0.05, **p<0.01; ***p<0.001; ****p<0.0001.
Mitochondrial dysfunction is a hallmark of senescence and reparative responses during oxidative insults requires effective energy metabolism. Oxidative stress-induced DNA damage activates NAD+ consumption pathways (31). Examination of the effect of SNHG12 knockdown on key mitochondrial activities such as mitochondrial respiration and glycolysis in ECs used Seahorse analyses. Loss of SNHG12 decreased the extracellular acidification rate (ECAR) and oxygen consumption rate (OCR) of live cells (FIGS. 13A, 13B). […]

[3] = biological target: T1, DNA-PK (Homo sapiens, UniProt P78527); test: lncRNA pulldown of biotinylated SNHG12 domain deletion constructs; format: binding; details: pulldown with HUVEC nuclear protein lysate
T1 construct: lncRNA pulldown using nuclear protein extract from HUVECs; endogenous in cells; host or cells: HUVEC nuclear protein lysate
From the text: (A) Proteins identified in pulldowns of biotinylated SNHG12; DNA-PK bound specifically to SNHG12 compared to negative control LacZ (n=2, two technical replicates each). (B) Immunoblotting for DNA-PK, ATM, ATR, Ku80, Ku70, p53, and control on nuclear protein lysate from HUVECs after lncRNA pulldown (n=5). (C) Analysis after streptavidin pulldown of nuclear protein lysate derived from the aorta of C57B1/6 mice following two i.v. injections of biotin-labeled SNHG12 compared to LacZ (n=4 per group). (D, E) Predicted secondary structure of SNHG12 with indicated deletions of domains 1˜4 used for subsequent lncRNA pulldown of biotinylated SNHG12 domain deletion constructs (n=4). P value was determined by one-way analysis of variance (ANOVA) (Fisher's test). (F) IP for DNA-PK following RNA isolation and subsequent RT-qPCR for SNHG12 and for negative control HPRT (n=5). […] Immunoblotting for Ku70, Ku80 and DNA-PK and (H) quantification under H2O2 conditions (n=3). […]
To identify potential SNHG12-interacting proteins that may inform mechanisms underlying these findings, biotin-labeled T7 in vitro transcribed SNHG12 or LacZ was incubated with nuclear protein lysate of HUVECs (FIG. 9A). […] Furthermore, biophysical studies determined the equilibrium dissociation constant (KD) for the SNHG12-DNA-PK interaction (1.318E-07 μM) (FIG. 9E). […]

T1 sequence (P78527 whole entry, the tested form may be a part): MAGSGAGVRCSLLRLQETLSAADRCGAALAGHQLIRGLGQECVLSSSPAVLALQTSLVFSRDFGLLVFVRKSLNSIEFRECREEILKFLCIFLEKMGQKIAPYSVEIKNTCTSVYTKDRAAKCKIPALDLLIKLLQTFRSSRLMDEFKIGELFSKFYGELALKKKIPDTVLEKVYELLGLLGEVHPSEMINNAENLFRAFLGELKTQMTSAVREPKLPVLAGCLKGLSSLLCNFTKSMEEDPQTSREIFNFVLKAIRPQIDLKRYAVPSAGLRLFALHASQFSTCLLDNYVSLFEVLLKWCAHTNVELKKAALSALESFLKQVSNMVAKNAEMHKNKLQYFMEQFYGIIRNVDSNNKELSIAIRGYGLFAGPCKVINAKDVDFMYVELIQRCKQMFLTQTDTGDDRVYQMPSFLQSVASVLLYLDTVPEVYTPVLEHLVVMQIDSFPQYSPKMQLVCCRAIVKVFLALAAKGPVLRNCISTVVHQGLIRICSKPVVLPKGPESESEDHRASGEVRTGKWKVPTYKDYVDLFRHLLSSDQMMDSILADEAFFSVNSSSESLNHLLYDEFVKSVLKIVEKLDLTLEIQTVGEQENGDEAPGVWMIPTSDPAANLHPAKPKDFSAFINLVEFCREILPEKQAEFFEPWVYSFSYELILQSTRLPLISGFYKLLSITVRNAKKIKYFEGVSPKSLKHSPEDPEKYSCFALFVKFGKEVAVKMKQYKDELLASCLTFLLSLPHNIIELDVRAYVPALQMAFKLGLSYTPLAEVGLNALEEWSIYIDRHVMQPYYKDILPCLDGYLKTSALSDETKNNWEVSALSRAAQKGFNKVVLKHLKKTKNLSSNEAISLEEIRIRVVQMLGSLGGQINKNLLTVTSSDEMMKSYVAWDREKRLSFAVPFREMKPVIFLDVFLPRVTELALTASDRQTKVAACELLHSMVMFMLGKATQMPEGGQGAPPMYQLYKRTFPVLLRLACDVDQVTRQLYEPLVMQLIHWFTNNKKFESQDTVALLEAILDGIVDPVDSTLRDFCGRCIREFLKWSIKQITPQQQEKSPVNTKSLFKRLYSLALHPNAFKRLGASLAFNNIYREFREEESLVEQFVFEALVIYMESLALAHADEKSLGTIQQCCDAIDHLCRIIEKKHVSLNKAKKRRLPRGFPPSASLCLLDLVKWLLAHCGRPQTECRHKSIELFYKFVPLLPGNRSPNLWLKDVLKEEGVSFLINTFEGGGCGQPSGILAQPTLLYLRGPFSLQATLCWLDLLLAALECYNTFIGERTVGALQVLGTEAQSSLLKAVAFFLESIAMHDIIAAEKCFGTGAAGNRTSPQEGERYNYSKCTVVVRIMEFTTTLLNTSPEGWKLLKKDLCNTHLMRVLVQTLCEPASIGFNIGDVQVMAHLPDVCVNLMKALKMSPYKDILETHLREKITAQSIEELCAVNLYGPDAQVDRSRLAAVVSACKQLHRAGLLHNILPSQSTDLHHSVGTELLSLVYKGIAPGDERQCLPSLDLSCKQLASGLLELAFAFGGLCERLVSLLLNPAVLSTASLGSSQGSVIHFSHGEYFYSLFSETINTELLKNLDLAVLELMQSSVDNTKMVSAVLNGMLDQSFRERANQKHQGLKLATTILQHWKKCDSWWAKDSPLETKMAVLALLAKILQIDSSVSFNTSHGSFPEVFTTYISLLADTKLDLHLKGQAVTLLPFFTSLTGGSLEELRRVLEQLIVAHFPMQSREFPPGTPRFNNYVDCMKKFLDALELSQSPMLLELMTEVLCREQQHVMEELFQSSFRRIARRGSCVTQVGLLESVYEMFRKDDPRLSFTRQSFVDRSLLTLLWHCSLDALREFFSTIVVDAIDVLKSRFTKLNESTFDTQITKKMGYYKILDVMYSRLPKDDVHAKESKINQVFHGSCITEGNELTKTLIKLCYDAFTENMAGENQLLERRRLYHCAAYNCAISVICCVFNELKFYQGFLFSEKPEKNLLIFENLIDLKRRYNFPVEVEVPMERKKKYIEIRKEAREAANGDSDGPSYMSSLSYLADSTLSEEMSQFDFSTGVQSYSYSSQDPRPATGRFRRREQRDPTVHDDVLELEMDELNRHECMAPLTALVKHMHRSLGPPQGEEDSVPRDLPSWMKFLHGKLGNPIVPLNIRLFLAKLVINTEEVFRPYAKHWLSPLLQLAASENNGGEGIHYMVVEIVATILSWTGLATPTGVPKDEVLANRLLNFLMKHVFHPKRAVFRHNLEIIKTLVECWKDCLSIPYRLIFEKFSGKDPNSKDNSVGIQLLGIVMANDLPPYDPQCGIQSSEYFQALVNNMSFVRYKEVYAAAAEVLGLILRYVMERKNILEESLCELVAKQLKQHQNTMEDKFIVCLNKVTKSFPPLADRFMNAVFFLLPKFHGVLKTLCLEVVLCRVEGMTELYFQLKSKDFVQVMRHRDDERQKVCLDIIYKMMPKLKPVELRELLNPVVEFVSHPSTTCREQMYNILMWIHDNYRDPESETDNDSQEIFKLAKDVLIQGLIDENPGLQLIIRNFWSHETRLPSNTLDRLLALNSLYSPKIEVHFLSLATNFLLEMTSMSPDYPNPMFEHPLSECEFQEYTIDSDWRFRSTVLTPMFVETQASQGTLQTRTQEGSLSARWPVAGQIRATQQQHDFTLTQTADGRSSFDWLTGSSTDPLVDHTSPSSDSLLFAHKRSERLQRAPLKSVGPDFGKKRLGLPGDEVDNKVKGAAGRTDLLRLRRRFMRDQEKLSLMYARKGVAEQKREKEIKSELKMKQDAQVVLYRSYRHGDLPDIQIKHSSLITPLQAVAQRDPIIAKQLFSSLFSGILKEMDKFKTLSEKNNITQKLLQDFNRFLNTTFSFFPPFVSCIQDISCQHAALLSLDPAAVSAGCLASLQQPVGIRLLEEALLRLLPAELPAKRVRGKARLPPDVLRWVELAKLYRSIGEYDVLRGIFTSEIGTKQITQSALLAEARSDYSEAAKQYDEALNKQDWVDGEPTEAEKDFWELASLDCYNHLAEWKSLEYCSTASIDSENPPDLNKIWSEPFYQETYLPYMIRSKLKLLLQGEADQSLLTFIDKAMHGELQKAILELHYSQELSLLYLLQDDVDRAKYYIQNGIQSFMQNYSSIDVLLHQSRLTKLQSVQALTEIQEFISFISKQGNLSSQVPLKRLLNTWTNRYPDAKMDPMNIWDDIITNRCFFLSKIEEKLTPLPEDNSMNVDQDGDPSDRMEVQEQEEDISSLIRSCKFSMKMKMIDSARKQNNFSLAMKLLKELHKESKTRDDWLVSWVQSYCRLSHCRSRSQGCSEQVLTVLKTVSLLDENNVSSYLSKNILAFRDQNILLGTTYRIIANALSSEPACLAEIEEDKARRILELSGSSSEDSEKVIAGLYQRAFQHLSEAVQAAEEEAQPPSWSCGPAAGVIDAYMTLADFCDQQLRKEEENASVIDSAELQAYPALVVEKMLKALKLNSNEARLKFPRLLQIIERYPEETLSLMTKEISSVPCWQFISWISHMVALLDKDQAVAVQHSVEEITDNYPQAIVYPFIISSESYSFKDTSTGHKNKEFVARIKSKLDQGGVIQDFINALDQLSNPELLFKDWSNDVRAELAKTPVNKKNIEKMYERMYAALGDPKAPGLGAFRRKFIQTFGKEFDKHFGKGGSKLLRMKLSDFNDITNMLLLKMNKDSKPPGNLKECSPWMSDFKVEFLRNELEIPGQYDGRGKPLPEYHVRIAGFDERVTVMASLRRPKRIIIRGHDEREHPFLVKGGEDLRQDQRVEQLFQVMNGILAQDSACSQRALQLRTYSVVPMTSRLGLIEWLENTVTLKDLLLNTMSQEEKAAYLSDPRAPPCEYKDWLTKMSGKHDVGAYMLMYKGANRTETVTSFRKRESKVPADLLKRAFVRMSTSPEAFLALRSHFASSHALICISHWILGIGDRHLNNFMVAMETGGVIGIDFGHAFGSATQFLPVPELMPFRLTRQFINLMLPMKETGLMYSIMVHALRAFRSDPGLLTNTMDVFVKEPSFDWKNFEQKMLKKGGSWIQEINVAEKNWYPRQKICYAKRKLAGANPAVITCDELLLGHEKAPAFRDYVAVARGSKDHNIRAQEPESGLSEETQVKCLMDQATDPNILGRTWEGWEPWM

| Molecule | increase in lesion areas by ORO between SNHG12-gapmeR and control-gapmeR groups on NR ([1]; HCD with NR 400 mg/kg/day, 12 weeks, P=0.1729) | SNHG12-gapmeR mediated increase of γH2AX foci in lesional ECs in the aortic arch ([1]; NR 400 mg/kg/day, 12 weeks) | induction of senescence markers p16, p21, and p27 compared to SNHG12-gapmeR without NR ([1]; aortic intima, NR 400 mg/kg/day) | TUNEL positive cells compared to groups without NR ([1]; aortic sinus, NR 400 mg/kg/day) | differences in plaque necrosis ([1]; aortic sinus, NR 400 mg/kg/day) | SNHG12 expression ([2]; NR 500 μM, 24 hrs) | NAD+/NADH ratio ([2]; gapmeR-transfected HUVECs, absence or presence of NR) | reduction of DNA-PK binding [3] [%] |
| --- | --- | --- | --- | --- | --- | --- | --- | --- |
| NC(=O)c1ccc[n+]([C@@H]2O[C@H](CO)[C@@H](O)[C@H]2O)c1 [NR, Nicotinamide Riboside] | no significant | abrogated | fell | reduced | eliminated differences | did not affect | partially rescued |  |
| B1 |  |  |  |  |  |  |  | ~50 |
